Like-named read-outs stand apart in the source and are kept apart here.
What was measured:
[1] = target: T1, MMP-2 (Homo sapiens, UniProt P08253); assay: MMP enzymatic assay (Trupoint peptide), MMP-2; type: biochemical
T1 construct: Human MMP-2 full length (aa 1-660)
T1 sequence (P08253 30-660): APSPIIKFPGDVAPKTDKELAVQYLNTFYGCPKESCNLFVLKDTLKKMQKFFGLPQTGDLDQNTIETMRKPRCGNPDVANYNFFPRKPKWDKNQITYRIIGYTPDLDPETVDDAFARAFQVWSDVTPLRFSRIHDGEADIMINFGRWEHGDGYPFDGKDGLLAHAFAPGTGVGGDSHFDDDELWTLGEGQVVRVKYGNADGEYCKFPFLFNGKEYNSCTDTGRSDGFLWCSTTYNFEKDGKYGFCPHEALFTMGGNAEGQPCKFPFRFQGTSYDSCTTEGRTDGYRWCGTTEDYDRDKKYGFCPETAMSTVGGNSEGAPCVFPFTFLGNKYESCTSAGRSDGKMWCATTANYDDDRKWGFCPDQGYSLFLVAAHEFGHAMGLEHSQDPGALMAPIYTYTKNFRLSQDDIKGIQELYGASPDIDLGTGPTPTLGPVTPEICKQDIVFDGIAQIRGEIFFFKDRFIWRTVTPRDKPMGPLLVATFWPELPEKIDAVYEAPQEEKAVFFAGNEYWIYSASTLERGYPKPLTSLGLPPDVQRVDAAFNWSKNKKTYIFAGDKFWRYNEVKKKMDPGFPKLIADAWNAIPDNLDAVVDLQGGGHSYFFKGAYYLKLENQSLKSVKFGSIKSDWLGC
Procedure: [formula] • 1) Prepare appropriate 1×MMP assay buffer from 10× stock. […] Need to prepare a 2.5× concentration stock (2.5 μM) to achieve this concentration in 50 μl. Dilute compound to 2.5 mM in 100% DMSO (a 1:40 dilution), then dilute the 2.5 mM compound to 2.5 μM (1:1000) into 1× assay buffer. Make 1 ml 2.5 μM compound in assay buffer. • 4) Fill the rows B through P of a 384-well plate with assay buffer+0.1% DMSO. • 5) Add 30 ul of the 2.5 μM compound in assay buffer to the top row of the plate, doing each compound in triplicate. The plate setup should be as follows, using GM6001 as plate reference compound:
• 6) Serially dilute 10 μl down the plate to achieve 1:3 dilutions in subsequent wells. After each dilution, change pipette tips to avoid compound carryover. Discard the remaining 10 μl after diluting into the final row. • 7) Prepare enzyme dilutions at 2.5× of final desired concentration (see below). Will need 10 ml enzyme solution per plate. Add enzyme to plate, 20 μl per well. Incubate 1 hr.
• 8) Dilute the 500 μM Trupoint peptide 1:1000 into assay buffer to achieve a 5× working stock of 500 nM. Prepare 5 ml total per plate. Add 10 ul of substrate to each well to achieve a final concentration of 100 nM in well. Also prepare background subtraction wells by adding 10 μl 5× substrate to 40 μl assay buffer per well, typically do ˜32 wells. • 9) Incubate assay at room temperature for 15 min. Read in plate reader.
(§1) Analysis Specifications • Calculate average background value from substrate/assay buffer wells • Subtract this from entire plate • Calculate average of DMSO wells for each enzyme. This is the positive control, 100% value. • For each well, calculate percent of control by dividing well value by the average DMSO value obtained above. • Paste percent of control values into Graphpad Prism 4.0.

[2] = target: T2, MMP-9 (Homo sapiens, UniProt P14780); assay: MMP enzymatic assay (Trupoint peptide), MMP-9; type: biochemical
T2 construct: Human MMP-9 catalytic domain (aa 107-446)
T2 sequence (P14780 107-446): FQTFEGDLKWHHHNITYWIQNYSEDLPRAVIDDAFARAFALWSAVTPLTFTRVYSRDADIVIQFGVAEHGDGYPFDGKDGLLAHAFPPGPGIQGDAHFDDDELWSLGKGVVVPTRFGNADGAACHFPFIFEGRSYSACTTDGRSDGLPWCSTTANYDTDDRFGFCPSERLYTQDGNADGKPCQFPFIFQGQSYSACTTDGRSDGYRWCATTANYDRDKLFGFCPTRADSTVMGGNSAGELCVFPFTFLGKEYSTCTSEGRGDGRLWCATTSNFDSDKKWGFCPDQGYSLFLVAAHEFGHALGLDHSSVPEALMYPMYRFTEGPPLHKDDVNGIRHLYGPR
Procedure: [formula] • 1) Prepare appropriate 1×MMP assay buffer from 10× stock. […] The plate setup should be as follows, using GM6001 as plate reference compound:
• 6) Serially dilute 10 μl down the plate to achieve 1:3 dilutions in subsequent wells. After each dilution, change pipette tips to avoid compound carryover. […] Will need 10 ml enzyme solution per plate. Add enzyme to plate, 20 μl per well. Incubate 1 hr.
Prepare 5 ml total per plate. Add 10 ul of substrate to each well to achieve a final concentration of 100 nM in well. […] Read in plate reader.
as §1

Row | SMILES | IC50 [1] | IC50 [2] | IC50 ([1]; read-out: MMP-2 nM IC50)
1 | O=S(=O)(c1ccc(Oc2ccccc2)cc1)N(Cc1ccccc1)c1cccn(O)c1=S [Compound 23, N-Benzyl-N-(1-hydroxy-2-thioxo-1,2-dihydro-pyridin-3-yl)-4-phenoxy-benzene-sulfonamide] | – | 693 nM | 4590 nM
2 | CN(c1cccn(O)c1=O)S(=O)(=O)c1ccc(-c2ccc(Cl)cc2)cc1 [Compound 36, 4′-Chloro-biphenyl-4-sulfonic acid (1-hydroxy-2-oxo-1,2-dihydro-pyridin-3-yl)-methyl-amide] | 1300 nM | 1800 nM | –
3 | O=c1c(NS(=O)(=O)c2ccc(Oc3ccc(Cl)cc3)cc2)cccn1O [Compound 37, 4-(4-Chloro-phenoxy)-N-(1-hydroxy-2-oxo-1,2-dihydro-pyridin-3-yl)-benzene-sulfonamide] | – | 316 nM | 242 nM
4 | Cc1ccc(Oc2ccc(S(=O)(=O)Nc3cccn(O)c3=O)cc2)cc1 [Compound 38] | 49.8 nM | 64.6 nM | –
5 | CN(c1cccn(O)c1=O)S(=O)(=O)c1ccc(Oc2ccc(OC(F)(F)F)cc2)cc1 [Compound 39, N-(1-Hydroxy-2-oxo-1,2-dihydro-pyridin-3-yl)-N-methyl-4-(4-trifluoro-methoxy-phenoxy)-benzenesulfonamide] | – | 1.85 nM | 5.75 nM
6 | O=c1c(NS(=O)(=O)c2ccc(-c3ccc(Cl)cc3)cc2)cccn1O [Compound 40, 4′-Chloro-biphenyl-4-sulfonic acid (1-hydroxy-2-oxo-1,2-dihydro-pyridin-3-yl)-amide] | > 1000 nM | > 1000 nM | –
7 | O=c1c(COc2ccc(-c3ccc(Br)cc3)cc2)cccn1O [Compound 41, 3-(4′-Bromo-biphenyl-4-yloxymethyl)-1-hydroxy-1H-pyridin-2-one] | > 10000 nM | 7140 nM | –
8 | CS(=O)(=O)N(Cc1cccn(O)c1=O)c1ccc(Oc2ccc(C(F)(F)F)cc2)cc1 [Compound 43, N-(1-Hydroxy-2-oxo-1,2-dihydro-pyridin-3-ylmethyl)-N-[4-(4-trifluoromethyl-phenoxy)-phenyl]-methanesulfonamide] | 491 nM | 233 nM | –
9 | CS(=O)(=O)N(Cc1cccn(O)c1=O)c1ccc(Oc2ccc(Cl)cc2)cc1 [Compound 44, N-[4-(4-Chloro-phenoxy)-phenyl]-N-(1-hydroxy-2-oxo-1,2-dihydro-pyridin-3-ylmethyl)-methanesulfonamide] | 406 nM | 126 nM | –
10 | CCCCc1ccc(N(Cc2cccn(O)c2=O)S(C)(=O)=O)cc1 [Compound 45, N-(4-Butyl-phenyl)-N-(1-hydroxy-2-oxo-1,2-dihydro-pyridin-3-ylmethyl)-methane-sulfonamide] | > 1000 nM | > 1000 nM | –
11 | CCCCOc1ccc(N(Cc2cccn(O)c2=O)S(C)(=O)=O)cc1 [Compound 46, N-(4-Butoxy-phenyl)-N-(1-hydroxy-2-oxo-1,2-dihydro-pyridin-3-ylmethyl)-methanesulfonamide] | > 1000 nM | > 1000 nM | –
12 | Cc1ccc(Oc2ccc(N(Cc3cccn(O)c3=S)S(C)(=O)=O)cc2)cc1 [Compound 47, N-(1-Hydroxy-2-thioxo-1,2-dihydro-pyridin-3-ylmethyl)-N-(4-p-tolyloxy-phenyl)-methanesulfonamide] | > 1000 nM | 486 nM | –
13 | Cc1ccc(Oc2ccc(N(Cc3c(C)ccn(O)c3=O)S(C)(=O)=O)cc2)cc1 [Compound 48, N-(1-Hydroxy-4-methyl-2-oxo-1,2-dihydro-pyridin-3-ylmethyl)-N-(4-p-tolyloxy-phenyl)-methanesulfonamide] | > 1000 nM | 457 nM | –
14 | Cc1ccc(Oc2ccc(N(Cc3cc(Br)cn(O)c3=O)S(C)(=O)=O)cc2)cc1 [Compound 49, N-(5-Bromo-1-hydroxy-2-oxo-1,2-dihydro-pyridin-3-ylmethyl)-N-(4-p-tolyloxy-phenyl)-methanesulfonamide] | 547 nM | 116 nM | –
15 | Cc1ccc(Oc2ccc(N(C(C)c3cccn(O)c3=O)S(C)(=O)=O)cc2)cc1 (stereo not shown) [Compound 50, N-[1-(1-Hydroxy-2-oxo-1,2-dihydro-pyridin-3-yl)-ethyl]-N-(4-p-tolyloxy-phenyl)-methanesulfonamide] | 2550 nM | 223 nM | –

Continued by falling IC50 [2], values first:

Row | IC50 [1] | IC50 [2] | IC50 ([1]; read-out: MMP-2 nM IC50) | SMILES
16 | 41 nM | 57.5 nM | – | CC(C)CN(c1cccn(O)c1=O)S(=O)(=O)c1ccc(Oc2ccccc2)cc1 [Compound 24, N-(1-Hydroxy-2-oxo-1,2-dihydro-pyridin-3-yl)-N-isobutyl-4-phenoxy-benzenesulfonamide]
17 | 208 nM | 46.9 nM | – | Cc1ccc(Oc2ccc(N(Cc3cccn(O)c3=O)S(C)(=O)=O)cc2)cc1 [Compound 42, N-(1-Hydroxy-2-oxo-1,2-dihydro-pyridin-3-ylmethyl)-N-(4-p-tolyloxy-phenyl)-methanesulfonamide]
18 | – | 34.9 nM | 66.4 nM | Cc1ccc(N(C)S(=O)(=O)c2ccc(Oc3ccc(Cl)cc3)cc2)c(=O)n1O [Compound 33, 4-(4-Chloro-phenoxy)-N-(1-hydroxy-6-methyl-2-oxo-1,2-dihydro-pyridin-3-yl)-N-methyl-benzenesulfonamide]
19 | – | 33.4 nM | 22.4 nM | O=c1c(N(Cc2ccccc2)S(=O)(=O)c2ccc(Oc3ccccc3)cc2)cccn1O [Compound 22, N-Benzyl-N-(1-hydroxy-2-oxo-1,2-dihydro-pyridin-3-yl)-4-phenoxy-benzene-sulfonamide]
20 | – | 4.84 nM | 4.93 nM | O=C(CN(c1cccn(O)c1=O)S(=O)(=O)c1ccc(Oc2ccc(Cl)cc2)cc1)N1CCOCC1 [Compound 35, 4-(4-Chloro-phenoxy)-N-(1-hydroxy-2-oxo-1,2-dihydro-pyridin-3-yl)-N-(2-morpholin-4-yl-2-oxo-ethyl)-benzenesulfonamide]
21 | 6.5 nM | 3.6 nM | – | CCN(c1cccn(O)c1=O)S(=O)(=O)c1ccc(Oc2ccc(C)cc2)cc1 [Compound 27, N-Ethyl-N-(1-hydroxy-2-oxo-1,2-dihydro-pyridin-3-yl)-4-p-tolyloxy-benzene-sulfonamide]
22 | 6.9 nM | 3.28 nM | – | CN(c1cccn(O)c1=O)S(=O)(=O)c1ccc(Oc2ccc(Cl)cc2)cc1 [Compound 28, 4-(4-Chloro-phenoxy)-N-(1-hydroxy-2-oxo-1,2-dihydro-pyridin-3-yl)-N-methyl-benzenesulfonamide]
23 | 3.5 nM | 2.41 nM | – | Cc1ccc(Oc2ccc(S(=O)(=O)N(CCN3CCOCC3)c3cccn(O)c3=O)cc2)cc1 [Compound 34, N-(1-Hydroxy-2-oxo-1,2-dihydro-pyridin-3-yl)-N-(2-morpholin-4-yl-ethyl)-4-p-tolyloxy-benzenesulfonamide]
24 | 1.52 nM | 1.41 nM | – | CN(c1cccn(O)c1=O)S(=O)(=O)c1ccc(Oc2ccccc2)cc1 [Compound 25, N-(1-Hydroxy-2-oxo-1,2-dihydro-pyridin-3-yl)-N-methyl-4-phenoxy-benzene-sulfonamide]
25 | 1.25 nM | 0.89 nM | – | CC1CN(CC2=CC[C@@H](NS(=O)(=O)c3ccc(Oc4ccc(Cl)cc4)cc3)C(=O)N(O)C2)CC(C)O1 (stereo partly drawn) [Compound 21, (R)-4-(4-Chloro-phenoxy)-N-[6-(2,6-dimethyl-morpholin-4-ylmethyl)-1-hydroxy-2-oxo-2,3,4,7-tetrahydro-1H-azepin-3-yl]-benzenesulfonamide]
26 | – | 0.87 nM | 5.6 nM | COc1ccc(Oc2ccc(S(=O)(=O)N(C)c3cccn(O)c3=O)cc2)cc1 [Compound 29, N-(1-Hydroxy-2-oxo-1,2-dihydro-pyridin-3-yl)-4-(4-methoxy-phenoxy)-N-methyl-benzenesulfonamide]

From US7803793B2, “Heterocyclic derived metalloprotease inhibitors” (Janssen Pharmaceutica NV, priority 2006, dated 2010)
